This note sets out measurements from patent publication US9085576B2 (AMGEN INC., priority 2013, dated 2015).

The structures appear in SMILES notation.

In test [1] the target is BACE (Homo sapiens (Human), UniProt P56817). In words: In vitro BACE cell-based assay (Aβ40 in conditioned medium, sandwich ELISA). For orientation: ELISA stands for enzyme-linked immunosorbent assay.
The target in test [2] is Beta Secretase enzyme (BACE) (Homo sapiens (Human), UniProt P56817). In words: In vitro enzymatic BACE FRET assay. The settings on record: read-out: BACE1 Enzyme assay IC50. The class given is biochemical.
Chain of Beta Secretase enzyme (BACE) (P56817 46-501): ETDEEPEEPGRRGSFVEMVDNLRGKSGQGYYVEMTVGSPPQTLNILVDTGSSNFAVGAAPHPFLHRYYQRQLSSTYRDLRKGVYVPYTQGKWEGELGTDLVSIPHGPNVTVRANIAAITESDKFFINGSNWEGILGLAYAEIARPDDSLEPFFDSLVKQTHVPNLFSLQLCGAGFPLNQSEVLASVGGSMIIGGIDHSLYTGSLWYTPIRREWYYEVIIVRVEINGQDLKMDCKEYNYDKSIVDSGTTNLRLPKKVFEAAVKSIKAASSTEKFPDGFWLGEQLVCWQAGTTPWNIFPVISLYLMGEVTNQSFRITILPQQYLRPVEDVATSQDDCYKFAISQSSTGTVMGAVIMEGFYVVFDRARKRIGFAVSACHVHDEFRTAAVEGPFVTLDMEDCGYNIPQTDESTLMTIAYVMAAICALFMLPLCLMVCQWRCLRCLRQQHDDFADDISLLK
Test [3] addresses Cathepsin D (Cat D) (Homo sapiens (Human), UniProt P07339). Put plainly: In vitro enzymatic Cathepsin D (Cat D) FRET assay. The class given is biochemical. The settings on record: read-out: CatD IC50.

Chain of BACE (P56817 46-501, species assumed): as the sequence (P56817 46-501) above
Chain of Cathepsin D (Cat D) (P07339 65-412, species assumed): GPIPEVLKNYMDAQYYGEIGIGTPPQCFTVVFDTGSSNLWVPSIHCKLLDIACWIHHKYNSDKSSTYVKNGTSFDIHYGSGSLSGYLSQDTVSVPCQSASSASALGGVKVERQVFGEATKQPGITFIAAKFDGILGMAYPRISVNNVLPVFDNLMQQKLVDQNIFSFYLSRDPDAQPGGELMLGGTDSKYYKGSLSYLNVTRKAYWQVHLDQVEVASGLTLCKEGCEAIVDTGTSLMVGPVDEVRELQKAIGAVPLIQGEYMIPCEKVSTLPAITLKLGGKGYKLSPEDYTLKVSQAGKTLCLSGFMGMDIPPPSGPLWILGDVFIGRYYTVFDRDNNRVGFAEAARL

For `NC1=N[C@@](c2cc(NC(=O)c3nn(C(F)F)cc3Cl)ccc2Cl)(C(F)F)[C@H]2C[C@H]2O1` [Example 224, N-(3-((1R,5S,6R)-3-amino-5-(difluoromethyl)-2-oxa-4-azabicyclo[4.1.0]hept-3-en-5-yl)-4-chlorophenyl)-4-chloro-1-(difluoromethyl)-1H-pyrazole-3-carboxamide], the figures for the half-maximal inhibitory concentration (IC50) in test [1], in test [2] and in test [3] were 0.0252 µM, 0.0105 µM and 510 µM, respectively.
The matching figures for `COc1cnc(C(=O)Nc2ccc(Cl)c([C@@]3(C(F)F)N=C(N)O[C@@H]4C[C@@H]43)c2)cn1` [Example 226, N-(3-((1R,5S,6R)-3-amino-5-(difluoromethyl)-2-oxa-4-azabicyclo[4.1.0]hept-3-en-5-yl)-4-chlorophenyl)-5-methoxypyrazine-2-carboxamide]: 0.0394 µM, 0.0895 µM and 363 µM.
The matching figures for `NC1=N[C@@](CF)(c2cc(NC(=O)c3ccc(Cl)cn3)cnc2F)[C@@H]2C[C@@H]2O1` [Example 230, N-(5-((1S,5R,6S)-3-amino-5-(fluoromethyl)-2-oxa-4-azabicyclo[4.1.0]hept-3-en-5-yl)-6-fluoropyridin-3-yl)-5-chloropicolinamide]: 2.23 µM, 12 µM and more than 400 µM.
Consider `NC1=N[C@](CF)(c2cc(NC(=O)c3ccc(Cl)cn3)cnc2F)[C@H]2C[C@H]2O1` [Example 231, N-(5-((1R,5S,6R)-3-amino-5-(fluoromethyl)-2-oxa-4-azabicyclo[4.1.0]hept-3-en-5-yl)-6-fluoropyridin-3-yl)-5-chloropicolinamide], for which the IC50 – broadly, the concentration at which inhibition is half-maximal – was determined as 0.0277 µM in test [1], 0.165 µM in test [2] and 390 µM in test [3].
Take `C#CCOc1ccc(C(=O)Nc2ccc(F)c([C@@]3(C(F)F)N=C(N)O[C@@H]4C[C@@H]43)c2)nc1` [Example 232, N-(3-((1R,5S,6R)-3-amino-5-(difluoromethyl)-2-oxa-4-azabicyclo[4.1.0]hept-3-en-5-yl)-4-fluorophenyl)-5-(prop-2-yn-1-yloxy)picolinamide]: the concentration for half-maximal inhibition (IC50) in test [1] is 0.0418 µM; in test [2], 0.0164 µM; in test [3], 588 µM.
Take `CC#CCOc1ccc(C(=O)Nc2ccc(F)c([C@@]3(C(F)F)N=C(N)O[C@@H]4C[C@@H]43)c2)nc1` [Example 233, N-(3-((1R,5S,6R)-3-amino-5-(difluoromethyl)-2-oxa-4-azabicyclo[4.1.0]hept-3-en-5-yl)-4-fluorophenyl)-5-(but-2-yn-1-yloxy)picolinamide]: the figures for the IC50 in test [1], in test [2] and in test [3] were 0.024 µM, 0.0057 µM and 244 µM, respectively.
Regarding `Cc1cc(C(F)F)cnc1C(=O)Nc1cnc(F)c([C@@]2(CF)N=C(N)O[C@@H]3C[C@@H]32)c1` [Example 234, N-(5-((1R,5S,6R)-3-amino-5-(fluoromethyl)-2-oxa-4-azabicyclo[4.1.0]hept-3-en-5-yl)-6-fluoropyridin-3-yl)-5-(difluoromethyl)-3-methylpicolinamide], the IC50 in test [1] was 0.0596 µM; in test [2] it was 0.283 µM; in test [3], more than 14.8 µM.
Take `NC1=N[C@](CF)(c2cc(NC(=O)c3ccc(Br)cn3)cnc2F)[C@H]2C[C@H]2O1` [Example 235, N-(5-((1R,5S,6R)-3-amino-5-(fluoromethyl)-2-oxa-4-azabicyclo[4.1.0]hept-3-en-5-yl)-6-fluoropyridin-3-yl)-5-bromopicolinamide]: the IC50 stood at 0.0188 µM in test [1], 0.126 µM in test [2] and 1810 µM in test [3].
In the same order, the values of `NC1=N[C@@](c2cc(NC(=O)c3ccc(OCC(F)(F)F)cn3)ccc2F)(C(F)F)[C@H]2C[C@H]2O1` [Example 236, N-(3-((1R,5S,6R)-3-amino-5-(difluoromethyl)-2-oxa-4-azabicyclo[4.1.0]hept-3-en-5-yl)-4-fluorophenyl)-5-(2,2,2-trifluoroethoxy) picolinamide] are 0.296 µM, 0.104 µM and 4250 µM.
Regarding `NC1=N[C@@](c2cc(NC(=O)C3CCCCC3)ccc2F)(C(F)F)[C@H]2C[C@H]2O1` [Example 239, N-(3-((1R,5S,6R)-3-amino-5-(difluoromethyl)-2-oxa-4-azabicyclo[4.1.0]hept-3-en-5-yl)-4-fluorophenyl) cyclohexanecarboxamide], the results for the IC50 in test [1], in test [2] and in test [3] were more than 15.6 µM, more than 40 µM and more than 400 µM, respectively.
In the same order, the values of `COCC(=O)Nc1ccc(F)c([C@@]2(C(F)F)N=C(N)O[C@@H]3C[C@@H]32)c1` [Example 240, N-(3-((1R,5S,6R)-3-amino-5-(difluoromethyl)-2-oxa-4-azabicyclo[4.1.0]hept-3-en-5-yl)-4-fluorophenyl)-2-methoxyacetamide] are 0.712 µM, 0.821 µM and 48.1 µM.
As to `NC1=N[C@@](c2cc(NC(=O)CC3CCCCC3)ccc2F)(C(F)F)[C@H]2C[C@H]2O1` [Example 241, N-(3-((1R,5S,6R)-3-amino-5-(difluoromethyl)-2-oxa-4-azabicyclo[4.1.0]hept-3-en-5-yl)-4-fluorophenyl)-2-cyclohexylacetamide], the results for the IC50 in test [1], in test [2] and in test [3] were more than 15.6 µM, more than 40 µM and more than 400 µM, respectively.
Regarding `NC1=N[C@@](c2cc(NC(=O)C3CCOCC3)ccc2F)(C(F)F)[C@H]2C[C@H]2O1` [Example 242], the concentration for half-maximal inhibition (IC50) is more than 15.6 µM in test [1], more than 40 µM in test [2] and 1910 µM in test [3].
The matching figures for `NC1=N[C@@](c2cc(NC(=O)C3=CCCCC3)ccc2F)(C(F)F)[C@H]2C[C@H]2O1` [Example 243, N-(3-((1R,5S,6R)-3-amino-5-(difluoromethyl)-2-oxa-4-azabicyclo[4.1.0]hept-3-en-5-yl)-4-fluorophenyl)cyclohex-1-enecarboxamide]: 4.07 µM, 24.4 µM and 1030 µM.
As for `NC1=N[C@@](c2cc(NC(=O)C3(c4ccc(Cl)cc4)CC3)ccc2F)(C(F)F)[C@H]2C[C@H]2O1` [Example 245, N-(3-((1R,5S,6R)-3-amino-5-(difluoromethyl)-2-oxa-4-azabicyclo[4.1.0]hept-3-en-5-yl)-4-fluorophenyl)-1-(4-chlorophenyl) cyclopropanecarboxamide], the half-inhibitory concentration (IC50) is more than 15.6 µM in test [1], more than 40 µM in test [2] and 447 µM in test [3].
As to `NC1=N[C@@](c2cc(NC(=O)C3(c4ccc(Cl)cc4)CCC3)ccc2F)(C(F)F)[C@H]2C[C@H]2O1` [Example 246, N-(3-((1R,5S,6R)-3-amino-5-(difluoromethyl)-2-oxa-4-azabicyclo[4.1.0]hept-3-en-5-yl)-4-fluorophenyl)-1-(4-chlorophenyl) cyclobutanecarboxamide], the values for the IC50 in test [1], in test [2] and in test [3] were more than 15.6 µM, more than 40 µM and 324 µM, respectively.
As to `COCCC(=O)Nc1ccc(F)c([C@@]2(C(F)F)N=C(N)O[C@@H]3C[C@@H]32)c1` [Example 247, N-(3-((1R,5S,6R)-3-amino-5-(difluoromethyl)-2-oxa-4-azabicyclo[4.1.0]hept-3-en-5-yl)-4-fluorophenyl)-3-methoxypropanamide], the IC50 amounted to 4.34 µM in test [1], 25.5 µM in test [2] and 486 µM in test [3].
The matching figures for `Cn1cc(C(=O)Nc2ccc(F)c([C@@]3(C(F)F)N=C(N)O[C@@H]4C[C@@H]43)c2)ccc1=O` [Example 248, N-(3-((1R,5S,6R)-3-amino-5-(difluoromethyl)-2-oxa-4-azabicyclo[4.1.0]hept-3-en-5-yl)-4-fluorophenyl)-1-methyl-6-oxo-1,6-dihydropyridine-3-carboxamide]: more than 15.6 µM, 40.5 µM and 1230 µM.
On to `Cn1ccc(C(=O)Nc2ccc(F)c([C@@]3(C(F)F)N=C(N)O[C@@H]4C[C@@H]43)c2)cc1=O` [Example 249, N-(3-((1R,5S,6R)-3-amino-5-(difluoromethyl)-2-oxa-4-azabicyclo[4.1.0]hept-3-en-5-yl)-4-fluorophenyl)-1-methyl-2-oxo-1,2-dihydropyridine-4-carboxamide], for which the IC50 is more than 15.6 µM in test [1], more than 40 µM in test [2] and 1590 µM in test [3].
In the same order, the values of `NC1=N[C@@](c2cc(NC(=O)c3ccc(OCC#CC4CC4)cn3)ccc2F)(C(F)F)[C@H]2C[C@H]2O1` [Example 250, N-(3-((1R,5S,6R)-3-amino-5-(difluoromethyl)-2-oxa-4-azabicyclo[4.1.0]hept-3-en-5-yl)-4-fluorophenyl)-5-((3-cyclopropylprop-2-yn-1-yl)oxy)picolinamide] are 0.603 µM, 0.0218 µM and 77.5 µM.
As for `NC1=N[C@@](c2cc(NC(=O)CC(F)(F)F)ccc2F)(C(F)F)[C@H]2C[C@H]2O1` [Example 251, N-(3-((1R,5S,6R)-3-amino-5-(difluoromethyl)-2-oxa-4-azabicyclo[4.1.0]hept-3-en-5-yl)-4-fluorophenyl)-3,3,3-trifluoropropanamide], the IC50 worked out at 2 µM in test [1], 4.7 µM in test [2] and 190 µM in test [3].
Regarding `CC(C)(C)OCC(=O)Nc1ccc(F)c([C@@]2(C(F)F)N=C(N)O[C@@H]3C[C@@H]32)c1` [Example 254, N-(3-((1R,5S,6R)-3-amino-5-(difluoromethyl)-2-oxa-4-azabicyclo[4.1.0]hept-3-en-5-yl)-4-fluorophenyl)-2-(tert-butoxy)acetamide], the 50% inhibitory concentration (IC50) in test [1] was more than 15.6 µM; in test [2], more than 40 µM; in test [3], 2560 µM.
In the same order, the values of `COCCOCC(=O)Nc1ccc(F)c([C@@]2(C(F)F)N=C(N)O[C@@H]3C[C@@H]32)c1` [Example 255, N-(3-((1R,5S,6R)-3-amino-5-(difluoromethyl)-2-oxa-4-azabicyclo[4.1.0]hept-3-en-5-yl)-4-fluorophenyl)-2-(2-methoxyethoxy) acetamide] are more than 15.6 µM, more than 40 µM and 666 µM.
